Experimental data: patent US20050054708A1, “Combinations of drugs for the treatment of neoplasms” (priority 2003, published 2005)
Where two headings read alike, the source gives them in different places.

Legend:
[1] = mice, single intraperitoneal injection at 10 mg/kg; cited from earlier work
[2] = target: T1, protein tyrosine phosphatase 1B (PTP1 B) (Homo sapiens, UniProt P18031); settings: cited from earlier work
T1 sequence (P18031 1-435): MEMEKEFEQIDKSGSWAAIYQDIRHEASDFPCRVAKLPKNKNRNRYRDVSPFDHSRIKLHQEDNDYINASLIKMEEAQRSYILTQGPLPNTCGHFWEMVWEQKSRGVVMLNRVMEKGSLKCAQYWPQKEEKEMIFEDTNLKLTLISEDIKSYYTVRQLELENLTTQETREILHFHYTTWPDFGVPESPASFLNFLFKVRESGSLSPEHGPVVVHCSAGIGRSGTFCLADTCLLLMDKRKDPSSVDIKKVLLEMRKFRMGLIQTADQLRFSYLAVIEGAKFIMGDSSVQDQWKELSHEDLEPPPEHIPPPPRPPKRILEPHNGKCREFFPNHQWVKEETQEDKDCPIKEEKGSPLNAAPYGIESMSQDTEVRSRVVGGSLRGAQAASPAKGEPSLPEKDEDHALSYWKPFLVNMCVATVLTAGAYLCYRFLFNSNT

[3] = tested on: phosphatases of regenerating liver (PRL-1, PRL-2, or PRL-3); settings: cited from earlier work
endo-exonuclease = settings: PCT Publication No. WO 01/35935; cited from earlier work
A549 cells = assay: Anti-proliferation assay (Alamar Blue metabolism); settings: Homo sapiens;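 note: 384-well plates, 72–80 h exposure at 37 °C, Alamar Blue fluorescence (ex 530 nm) read 3.5–5 h after dye addition, inhibition relative to mean of vehicle-only wells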
Method: Human non-small cells lung carcinoma cells A549 (ATCC# CCL-185), were grown at 37±0.5° C. and 5% CO2 in DMEM supplemented with 10% FBS, 2 mM glutamine, 1% penicillin, and 1% streptomycin.
Stock solutions (1000×) of each compound were prepared in DMSO and stored at −20° C. Master stock plates of 2-fold or 4-fold serial dilutions of individual compounds were prepared in 384-well plates. Combination matrices of test compounds were generated from these master stock plates by dilution into growth media described above. […] The combination matrices were used immediately and discarded.
The anti-proliferation assays were performed in 384-well plates. 6.6 μL of 10× stock solutions from the combination matrices were added to 40 μL of culture media in assay wells. The tumor cells were liberated from the culture flask using a solution of 0.25% trypsin. Cells were diluted in culture media such that 3000 or 6000 cells were delivered in 20 μL of media into each assay well. Assay plates were incubated for 72-80 hours at 37° C. ±0.5° C. with 5% CO2. Twenty microliters of 20% Alamar Blue warmed to 37° C. ±0.5° C. was added to each assay well following the incubation period. Alamar Blue metabolism was quantified by the amount of fluorescence intensity 3.5-5.0 hours after addition. Quantification, using an LJL Analyst AD reader (LJL Biosystems), was taken in the middle of the well with high attenuation, a 100 msec read time, an excitation filter at 530 nm, and an emission filter at 575 nm. For some experiments, quantification was performed using a Wallac Victor^2 reader. Measurements were taken at the top of the well with stabilized energy lamp control; a 100 msec read time, an excitation filter at 530 nm, and an emission filter at 590 nm.
The percent inhibition (% I) for each well was calculated using the following formula: % I=[(avg. untreated wells−treated well)/(avg. untreated wells)]×100 The average untreated well value (avg. untreated wells) is the arithmetic mean of 40 wells from the same assay plate treated with vehicle alone.
Inhibition of proliferation was measured by anti-proliferation assay as described below after incubation with the test compound(s) for 72 hours.

**Q.** Which tissue distribution [1] does the source give for `N=C(N)c1ccc(OCCCCCOc2ccc(C(=N)N)cc2)cc1` [Pentamidine, pentamidine] here?
**A.** The concentration in the kidneys was the highest, followed by that in the liver

**Q.** And the “inhibition of protein tyrosine phosphatase 1B” value [2]?
**A.** effective inhibitor

**Q.** And the “inhibition of phosphatases of regenerating liver” value [3]?
**A.** potent inhibitor

**Q.** And the “inhibition of endo-exonuclease activity” value (endo-exonuclease)?
**A.** inhibit the activity of endo-exonuclease

**Q.** And the inhibition at 0.013 µM (A549 cells; A549, read-out: Percent inhibition of Alamar Blue Metabolism, pentamidine 0.013 μM alone (Table 3))?
**A.** -28.2%

**Q.** And the inhibition at 0.013 µM (A549 cells; A549, read-out: Percent inhibition of Alamar Blue Metabolism, pentamidine 0.013 μM alone (Table 4))?
**A.** 8.4%

**Q.** And the inhibition at 0.013 µM (A549 cells; A549, read-out: Percent inhibition of Alamar Blue Metabolism, pentamidine 0.013 μM alone (Table 5))?
**A.** 30.2%

**Q.** What about the inhibition at 0.013 µM (A549 cells; A549, read-out: Percent inhibition of Alamar Blue Metabolism, pentamidine 0.013 μM alone (Table 6)) of the same compound?
**A.** -6.7%

**Q.** What about the inhibition at 0.013 µM (A549 cells; A549, read-out: Percent inhibition of Alamar Blue Metabolism, pentamidine 0.013 μM alone (Table 7)) of the same compound?
**A.** -4.4%

**Q.** And the inhibition at 0.026 µM (A549 cells; A549, read-out: Percent inhibition of Alamar Blue Metabolism, pentamidine 0.026 μM alone (Table 3))?
**A.** -25.3%

**Q.** And the inhibition at 0.026 µM (A549 cells; A549, read-out: Percent inhibition of Alamar Blue Metabolism, pentamidine 0.026 μM alone (Table 4))?
**A.** -6.8%

**Q.** What about the inhibition at 0.026 µM (A549 cells; A549, read-out: Percent inhibition of Alamar Blue Metabolism, pentamidine 0.026 μM alone (Table 5)) of the same compound?
**A.** 28.4%

**Q.** And the inhibition at 0.026 µM (A549 cells; A549, read-out: Percent inhibition of Alamar Blue Metabolism, pentamidine 0.026 μM alone (Table 6))?
**A.** 13.1%

**Q.** What about the inhibition at 0.026 µM (A549 cells; A549, read-out: Percent inhibition of Alamar Blue Metabolism, pentamidine 0.026 μM alone (Table 7)) of the same compound?
**A.** -3%

**Q.** And the inhibition at 0.05 µM (A549 cells; A549, read-out: Percent inhibition of Alamar Blue Metabolism, pentamidine 0.050 μM alone (Table 8))?
**A.** 2.4%

**Q.** And the inhibition at 0.053 µM (A549 cells; A549, read-out: Percent inhibition of Alamar Blue Metabolism, pentamidine 0.053 μM alone (Table 3))?
**A.** -12.4%

**Q.** And the inhibition at 0.053 µM (A549 cells; A549, read-out: Percent inhibition of Alamar Blue Metabolism, pentamidine 0.053 μM alone (Table 4))?
**A.** -8.8%

**Q.** What about the inhibition at 0.053 µM (A549 cells; A549, read-out: Percent inhibition of Alamar Blue Metabolism, pentamidine 0.053 μM alone (Table 5)) of the same compound?
**A.** 30.4%

**Q.** And the inhibition at 0.053 µM (A549 cells; A549, read-out: Percent inhibition of Alamar Blue Metabolism, pentamidine 0.053 μM alone (Table 6))?
**A.** 1.1%

**Q.** And the inhibition at 0.053 µM (A549 cells; A549, read-out: Percent inhibition of Alamar Blue Metabolism, pentamidine 0.053 μM alone (Table 7))?
**A.** -1.9%

**Q.** What about the inhibition at 0.1 µM (A549 cells; A549, read-out: Percent inhibition of Alamar Blue Metabolism, pentamidine 0.100 μM alone (Table 8)) of the same compound?
**A.** -3.1%

**Q.** And the inhibition at 0.105 µM (A549 cells; A549, read-out: Percent inhibition of Alamar Blue Metabolism, pentamidine 0.105 μM alone (Table 3))?
**A.** 4.7%

**Q.** What about the inhibition at 0.105 µM (A549 cells; A549, read-out: Percent inhibition of Alamar Blue Metabolism, pentamidine 0.105 μM alone (Table 4)) of the same compound?
**A.** -3.7%

**Q.** What about the inhibition at 0.105 µM (A549 cells; A549, read-out: Percent inhibition of Alamar Blue Metabolism, pentamidine 0.105 μM alone (Table 5)) of the same compound?
**A.** 33.7%

**Q.** And the inhibition at 0.105 µM (A549 cells; A549, read-out: Percent inhibition of Alamar Blue Metabolism, pentamidine 0.105 μM alone (Table 6))?
**A.** -3.7%

**Q.** And the inhibition at 0.105 µM (A549 cells; A549, read-out: Percent inhibition of Alamar Blue Metabolism, pentamidine 0.105 μM alone (Table 7))?
**A.** 9.2%

**Q.** What about the inhibition at 0.2 µM (A549 cells; A549, read-out: Percent inhibition of Alamar Blue Metabolism, pentamidine 0.200 μM alone (Table 8)) of the same compound?
**A.** -0.7%

**Q.** And the inhibition at 0.35 µM (A549 cells; A549, read-out: Percent inhibition of Alamar Blue Metabolism, pentamidine 0.350 μM alone (Table 8))?
**A.** -1.5%

**Q.** What about the inhibition at 0.421 µM (A549 cells; A549, read-out: Percent inhibition of Alamar Blue Metabolism, pentamidine 0.421 μM alone (Table 4)) of the same compound?
**A.** 50%

**Q.** And the inhibition at 0.421 µM (A549 cells; A549, read-out: Percent inhibition of Alamar Blue Metabolism, pentamidine 0.421 μM alone (Table 6))?
**A.** 32.6%

**Q.** What about the inhibition at 0.421 µM (A549 cells; A549, read-out: Percent inhibition of Alamar Blue Metabolism, pentamidine 0.421 μM alone (Table 7)) of the same compound?
**A.** 10.5%

**Q.** And the inhibition at 0.422 µM (A549 cells; A549, read-out: Percent inhibition of Alamar Blue Metabolism, pentamidine 0.422 μM alone (Table 3))?
**A.** 52.1%

**Q.** And the inhibition at 0.422 µM (A549 cells; A549, read-out: Percent inhibition of Alamar Blue Metabolism, pentamidine 0.422 μM alone (Table 5))?
**A.** 68.2%

**Q.** What about the inhibition at 0.5 µM (A549 cells; A549, read-out: Percent inhibition of Alamar Blue Metabolism, pentamidine 0.500 μM alone (Table 8)) of the same compound?
**A.** 15.8%

**Q.** And the inhibition at 0.7 µM (A549 cells; A549, read-out: Percent inhibition of Alamar Blue Metabolism, pentamidine 0.700 μM alone (Table 8))?
**A.** 21.7%

**Q.** What about the inhibition at 1 µM (A549 cells; A549, read-out: Percent inhibition of Alamar Blue Metabolism, pentamidine 1.000 μM alone (Table 8)) of the same compound?
**A.** 48.9%

**Q.** What about the inhibition at 1.3 µM (A549 cells; A549, read-out: Percent inhibition of Alamar Blue Metabolism, pentamidine 1.300 μM alone (Table 8)) of the same compound?
**A.** 64.7%

**Q.** And the inhibition at 1.685 µM (A549 cells; A549, read-out: Percent inhibition of Alamar Blue Metabolism, pentamidine 1.685 μM alone (Table 4))?
**A.** 79.1%

**Q.** What about the inhibition at 1.685 µM (A549 cells; A549, read-out: Percent inhibition of Alamar Blue Metabolism, pentamidine 1.685 μM alone (Table 6)) of the same compound?
**A.** 71.9%

**Q.** What about the inhibition at 1.685 µM (A549 cells; A549, read-out: Percent inhibition of Alamar Blue Metabolism, pentamidine 1.685 μM alone (Table 7)) of the same compound?
**A.** 62.9%

**Q.** What about the inhibition at 1.687 µM (A549 cells; A549, read-out: Percent inhibition of Alamar Blue Metabolism, pentamidine 1.687 μM alone (Table 3)) of the same compound?
**A.** 78.2%

**Q.** What about the inhibition at 1.687 µM (A549 cells; A549, read-out: Percent inhibition of Alamar Blue Metabolism, pentamidine 1.687 μM alone (Table 5)) of the same compound?
**A.** 83.1%

**Q.** And the inhibition at 1.7 µM (A549 cells; A549, read-out: Percent inhibition of Alamar Blue Metabolism, pentamidine 1.700 μM alone (Table 8))?
**A.** 70.1%

**Q.** What about the inhibition at 3.37 µM (A549 cells; A549, read-out: Percent inhibition of Alamar Blue Metabolism, pentamidine 3.370 μM alone (Table 4)) of the same compound?
**A.** 79.4%

**Q.** What about the inhibition at 3.37 µM (A549 cells; A549, read-out: Percent inhibition of Alamar Blue Metabolism, pentamidine 3.370 μM alone (Table 6)) of the same compound?
**A.** 80.6%

**Q.** What about the inhibition at 3.37 µM (A549 cells; A549, read-out: Percent inhibition of Alamar Blue Metabolism, pentamidine 3.370 μM alone (Table 7)) of the same compound?
**A.** 73.7%

**Q.** And the inhibition at 3.374 µM (A549 cells; A549, read-out: Percent inhibition of Alamar Blue Metabolism, pentamidine 3.374 μM alone (Table 3))?
**A.** 85.4%

**Q.** And the inhibition at 3.374 µM (A549 cells; A549, read-out: Percent inhibition of Alamar Blue Metabolism, pentamidine 3.374 μM alone (Table 5))?
**A.** 87.5%
